# Measurements from US20090221684A1, “Molecules for Gene Delivery and Gene Therapy, and Methods of Use Thereof” (priority 2005, published 2009).
# Where two headings read alike, the source gives them in different places.
# Legend:
# CHO cells [1] = experiment: Gene transfection efficiency in a cell population by optical microscopy; format: cell-based, Chinese hamster; conditions: reporter gene β-gal
# Source text: Importantly, more than 70% of the cells had been transfected as compared to less than 40% when using other transfection reagents.
# GAPDH = experiment: siRNA delivery, KDalert GAPDH gene knockdown assay; format: cell-based; conditions: 48 hr after siRNA transfection
# Experimental: Trypsine adherent cells and dilute in normal growth medium to 1×10^5 cells per ml. […] Dilute RNA in serum free medium. Mix the diluted RNA with the transfectant reagent, incubate for 10 min at room temperature and dispense into a culture plate. Depending on the experimental design, the ration of lipid, siRNA, pH, and incubation time was varied. Overlay cell suspension onto the transfection mixture. Incubate at 37° C. and 5% CO2. Assay for gene knockdown were assessed after 48 h depending on the experimental protocol.
# The gene knockdown assay performed was KDalert™ GAPDH Assay (Ambion) following the manufacturer protocol. Briefly, 48 hr after siRNA transfection, aspirate the culture medium from transfected cells. Add 200 μl KDalert Lysis Buffer to each sample well. Incubate at 4° C. for 20 min to lyse the cells. Pipet the cell lysate up and down 4-5 times to homogenize the lysate. Transfer 10 μl of each lysate or GAPDH Enzyme dilution (including the GAPDH Working Stock) to the wells of a clean 96 well plate. Working quickly, add 90 μl of KDalert Master Mix to each sample using a multi-channel pipettor to dispense the KDalert Master Mix quickly. Measure the increase in fluorescence of the samples at room temp. Using the reagent above we saw greater than 80% knockdown of the protein.
# CHO cells [2] = experiment: Cytotoxicity, formazan-based proliferation assay and total protein assay, CHO cells; conditions: for cytotoxicity (cell proliferation/number as percentage of non-treated cells): 24 hours after addition
# Experimental: Cytotocixity experiments were also performed with CHO and L6 cells using a formazan-based proliferation assay and a total protein assay. The cells were seeded onto a 96-multiwell plate with an appropriate density of 1×10^4 cells per well. […] After another 24 hours, cell proliferation/number was determined and expressed as a percentage of non-treated cells.
# Cytotoxicity was assessed using both a formazan-based proliferation assay (CellTiter 96 AQueous One Solution Cell Proliferation Assay kit, Promega) and a total protein-based assay (Pierce). Briefly, CHO cells were seeded onto a multi-well microtiter plate with an appropriate density, depending on the size of the well (e.g., 1×10^4 cells per well in a 96-well plate). After 48 h, MTS substrate was added to each well and the plate and incubated for 4 h at 37° C. in a humidified, 5% CO2 incubator. The amount of soluble formazan produced by cellular reduction of the substrates MTS was recorded at 490 nm using a multi-well plate reader. For the total protein-based proliferation assay, cells were lysed at the same time when transfection efficiency was assayed. A 5 μL of lysates were transferred to a separate multi-well plate. Total protein contents were assessed using the Coomassie Blue protein kit (Pierce, Rockford, Ill.) following the manufacturer protocol. Negative and positive controls were non-treated cells and commercial lipids treated cells, respectively. The proliferation results were expressed as percentages of non-treated cells.
# [3] = tested on: Chinese hamster ovarian (CHO) cells; experiment: β-galactosidase reporter gene transfection in CHO cells; format: cell-based
# Experimental: The reporter gene was first mixed with the lipids in potassium phosphate buffer (PBS) at room temperature. We tested two different lipid/DNA ratios (5:1; and 20:1) while keeping the zwitterionic/DOTAP ratio constant at 1:1. Next, the lipid/DNA complexes were added to the cells. The amount of DNA used was the same as used in the naked DNA control (no lipid), and the negative control was compound 4 without DNA. After incubation at 37° C. and 5% CO2 for 2 h, the medium was removed and fresh growth medium was added. Transfection efficiencies were assessed after 48 h using the β-galactosidase enzyme assay in conjunction with a standard curve. The efficiency of each transfection was calculated as β-gal activity normalized to total protein.
# Transfection assays were performed using the well established beta-galactosidase transfection assay. In these experiments the beta-galactosidase gene is transfected into cells. Next, the expressed enzyme then cleaves a chemiluminescent reporter that is detected. […]
# Chinese hamster ovarian cells (CHO, ATCC, Manassas, Va.) were cultured in complete F12K media (ATCC) containing 10% fetal calf serum (Sigma) and 1% penicillin and streptomycin (500 IU/ml and 5000 μg/ml, respectively, Mediatech, Herndon, Va.) at 37° C. in 5% CO2 with humidity. […] Transfection efficiencies were assessed 24 h to 48 h post transfection depending on the experimental design. […]
# calf thymus DNA = experiment: Ethidium bromide displacement fluorescence assay; format: binding; conditions: fluorescence intensity as a function of vector/DNA charge ratio
# Experimental: The propensity of the lipids to bind DNA was measured via an ethidium bromide displacement fluorescence assay. This assay entailed measuring the reduction of the fluorescence intensity of the DNA-intercalated ethidium bromide, as this fluorescent probe is displaced by the cationic amphiphile. […] The results obtained with DOTAP, DOTAP/DOPE, and DOPC/DOTAP are consistent with previous reports. A 1:1 assembly is formed between the lipids and DNA.
# Binding studies were carried out by competitive displacement fluorimetric assay with DNA-bound ethidium bromide. This assay involves the addition of aliquots of the compound to a 3 mL solution of EthBr (1.3 μM) and calf thymus DNA (3 μM) in buffer (100 mM NaCl, 100 mM Tris, pH 7.4) with the decrease of fluorescence (λexc=546 nm, λem=600 nm; 1 cm path length glass cuvette, slit width 3 nm) recorded after 5 min equilibrium time following each addition.
# [4] = Transmission electron micrographs (TEM) of vesicles; format: physicochemical
# Source text: (§1) It is likely that 4 will form bilayers. […] After 20 extrusions, a homogeneous liposome solution was observed.
# L6 cells = experiment: Cytotoxicity, formazan-based proliferation assay and total protein assay, L6 cells; format: cell-based; conditions: 24 hours after addition
# [5] = Liposome average diameter by dynamic light scattering; format: physicochemical; conditions: extruded through 50 nm membrane, Tris buffer pH 7.4
# Source text: as §1
# [6] = Differential scanning calorimeter (DSC) trace of hydrated amphiphile; format: physicochemical
# Experimental for esterase: Next, we prepared vesicles of 4, 4/DOTAP, and DOPC/DOTAP. A chloroform solution containing 4, 4/DOTAP, or DOPC/DOTAP was added to a pear shaped flask and the solution was evaporated under vacuum leaving a thin film deposited onto the flask wall. One mL of Tris buffer (100 mM Tris, 100 mM NaCl, pH 7.4) was then added and the film was peeled off by vortexing. The milky aqueous suspension was extruded through a polycarbonate membrane (50 nm) using an Aventi polar lipids mini-extruder. After 20 extrusions, a homogeneous liposome solution was observed.
compound,measurement,setting,value
"1,2-Di-tetradecanoyl-3-Lys-Trp-Lys-rac-glycerol",cells transfected,CHO cells [1],more than 70%
same,knockdown of the protein,GAPDH,greater than 80%
same,cell cytotoxicity,"CHO cells [2]; CHO cells, Example 16, MTS and total protein assays",minimal cell cytotoxicity
same,transfection capability,"[3]; CHO cells, Example 15, β-gal reporter gene",high transfection capability
"NCCOP(=O)(O)OCC(COC(=O)CCCCCCCCCCC(=O)OCc1ccccc1)OC(=O)CCCCCCCCCCC(=O)OCc1ccccc1 (racemic) [1,2-Di-dodecanedioyl benzyl ester-3-phosphoethanolamine-rac-glycerol]",cell cytotoxicity,CHO cells [2],minimal cell cytotoxicity
"C[N+](C)(C)CCOP(=O)([O-])OCC(COC(=O)CCCCCCCCCCC(=O)OCc1ccccc1)OC(=O)CCCCCCCCCCC(=O)OCc1ccccc1 (racemic) [Compound 4, 1,2-Di-dodecanedioyl benzyl ester-3-phosphocholine-rac-glycerol]",displacement of DNA-intercalated ethidium bromide (fluorescence intensity),calf thymus DNA,do not displace EtBr
same,average size of vesicular organizations,[4],about 100 nM
same,cytotoxicity (cell proliferation/number as percentage of non-treated cells),CHO cells [2]; CHO cells,None of the amphiphiles showed significant cytotoxicity
same,cytotoxicity (cell proliferation/number as percentage of non-treated cells),L6 cells,None of the amphiphiles showed significant cytotoxicity
same,average diameter of the liposomes,[5],79 nm
same,phase-transition temperature,[6],~44 °C
same,time to loss of 4,esterase,four
same,time to complete hydrolysis of 4 to yield 5,"esterase; esterase added to liposomes prepared from 4, HPLC",8 h
same,transfection efficiency (β-gal activity normalized to total protein),"[3]; assessed after 48 h, result in words",does not transfect DNA
"CCCCCCCC/C=C\CCCCCCCC(=O)OC[C@H](COP(=O)([O-])OCC[N+](C)(C)C)OC(=O)CCCCCCC/C=C\CCCCCCCC [DOPC, dioleylphosphatidyl choline]",displacement of DNA-intercalated ethidium bromide (fluorescence intensity),calf thymus DNA,do not displace EtBr
"CCCCCCCC/C=C\CCCCCCCC(=O)OC[C@H](COP(=O)(O)OCCN)OC(=O)CCCCCCC/C=C\CCCCCCCC [DOPE, dioleylphosphatidyl ethanolamine]",displacement of DNA-intercalated ethidium bromide (fluorescence intensity),calf thymus DNA,do not displace EtBr
"CCCCCCCC/C=C\CCCCCCCC(=O)OCC(C[N+](C)(C)C)OC(=O)CCCCCCC/C=C\CCCCCCCC (stereo not shown) [DOTAP, 1,2-dioleoyloxy-3-(trimethylammonio)-propane, reference compound]",displacement of DNA-intercalated ethidium bromide (fluorescence intensity),calf thymus DNA,fluorescence intensity decreases
same,cytotoxicity (cell proliferation/number as percentage of non-treated cells),CHO cells [2]; CHO cells,None of the amphiphiles showed significant cytotoxicity
same,cytotoxicity (cell proliferation/number as percentage of non-treated cells),L6 cells,None of the amphiphiles showed significant cytotoxicity
